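A five-concentration, 48-hour dose response in 96-well plates underlies each endpoint, interpolated linearly between surrounding concentrations. TGI: total growth inhibition.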
Tests used:
Assay in all cases: growth of human tumour cells (NCI), 48 h
SK-MEL-5 melanoma = system: SK-MEL-5 melanoma
U251 CNS = system: U251 CNS
UACC-62 melanoma = system: UACC-62 melanoma
SK-OV-3 ovarian = system: SK-OV-3 ovarian
IGROV1 ovarian = system: IGROV1 ovarian
RPMI-8226 leukemia = system: RPMI-8226 leukemia
PC-3 prostate = system: PC-3 prostate
SW-620 colon = system: SW-620 colon
CCRF-CEM leukemia = system: CCRF-CEM leukemia
RXF 393 renal = system: RXF 393 renal
A498 renal = system: A498 renal
T-47D breast = system: T-47D breast
HOP-92 NSCLC = system: HOP-92 NSCLC
UO-31 renal = system: UO-31 renal
SF-268 CNS = system: SF-268 CNS
SN12C renal = system: SN12C renal
SK-MEL-28 melanoma = system: SK-MEL-28 melanoma
NCI-H460 lung = system: NCI-H460 lung
LOX IMVI melanoma = system: LOX IMVI melanoma
HL-60(TB) leukemia = system: HL-60(TB) leukemia

Compound	TGI (SK-MEL-5 melanoma) [µM]	TGI (U251 CNS) [µM]	TGI (UACC-62 melanoma) [µM]	TGI (SK-OV-3 ovarian) [µM]	TGI (IGROV1 ovarian) [µM]	TGI (RPMI-8226 leukemia) [µM]	TGI (PC-3 prostate) [µM]	TGI (SW-620 colon) [µM]	TGI (CCRF-CEM leukemia) [µM]	TGI (RXF 393 renal) [µM]	TGI (A498 renal) [µM]	TGI (T-47D breast) [µM]	TGI (HOP-92 NSCLC) [µM]	TGI (UO-31 renal) [µM]	TGI (SF-268 CNS) [µM]	TGI (SN12C renal) [µM]	TGI (SK-MEL-28 melanoma) [µM]	TGI (NCI-H460 lung) [µM]	TGI (LOX IMVI melanoma) [µM]	TGI (HL-60(TB) leukemia) [µM]
CC(C)=C1C(=O)C[C@]2(C)C/C=C(\C)CC/C=C(\C)CC[C@@H]12	15.5	14.8	15.3	> 50	19.4	36.9	> 50	17.3	19.5	15.2	47.9	> 50	19.3	15.1	18	17.3	15.2	–	–	–
CCOC(=O)[C@H](Cc1ccccc1)NC(=O)c1nc[nH]c1[N+](=O)[O-]	> 100	> 100	> 100	> 100	> 100	> 100	–	> 100	> 100	–	> 100	–	–	> 100	> 100	> 100	> 100	> 100	> 100	> 100
CN(C)S(=O)(=O)n1ccnc1	> 100	> 100	–	> 100	> 100	> 100	> 100	> 100	–	> 100	> 100	> 100	> 100	> 100	> 100	> 100	> 100	> 100	> 100	–
O=C(CN1CCOCC1)c1ccc2[nH]c(=O)oc2c1	> 100	> 100	> 100	> 100	> 100	> 100	> 100	> 100	> 100	> 100	> 100	–	–	> 100	> 100	> 100	> 100	> 100	> 100	> 100
Cn1ccnc1SC(F)(F)c1nc2ccccc2o1	> 100	> 100	> 100	> 100	> 100	> 100	> 100	> 100	> 100	> 100	> 100	> 100	> 100	> 100	> 100	> 100	> 100	> 100	–	–
CSc1nc(C)cc(N(C)c2ccccc2)n1	56.2	> 100	> 100	> 100	> 100	> 100	> 100	> 100	> 100	> 100	> 100	–	–	> 100	> 100	> 100	> 100	> 100	> 100	61.9
O=c1oc2ccccc2c(-c2ccc(O)cc2)c1Oc1ccc(Cl)cc1	45.3	61.4	63.3	–	60.8	52.4	97.1	> 100	52.9	57.8	77.2	> 100	52.9	51.9	75.9	79.7	> 100	54.4	62	–
COC(=O)C(CCC1(C)OCCO1)C(C)=O (stereo not given)	> 100	> 100	–	> 100	> 100	–	–	> 100	> 100	> 100	> 100	–	–	> 100	> 100	> 100	> 100	> 100	> 100	> 100
Cc1ccc(/C=C/C(=O)c2sc(C(N)=S)nc2C)cc1	> 100	> 100	> 100	> 100	> 100	> 100	–	> 100	> 100	> 100	> 100	–	> 100	> 100	> 100	> 100	> 100	> 100	> 100	> 100
COC(=O)C(C(=O)C(=O)Nc1c(Cl)cc([N+](=O)[O-])cc1Cl)c1nc2cc(C)c(C)cc2[nH]c1=O (stereo not given)	–	> 100	> 100	> 100	> 100	> 100	–	> 100	> 100	> 100	> 100	–	> 100	> 100	> 100	> 100	–	> 100	> 100	> 100
COc1ccc(C2Cc3cc(OC)c(OC)c(OC)c3C2=O)cc1 (stereo not given)	> 100	> 100	> 100	> 100	> 100	> 100	–	> 100	> 100	–	> 100	–	–	> 100	> 100	> 100	> 100	> 100	> 100	–
COc1ccc(NC(=O)CSc2nnc(Cc3ccccc3)o2)cc1	> 100	> 100	> 100	> 100	> 100	> 100	–	> 100	> 100	> 100	> 100	–	–	> 100	> 100	> 100	> 100	> 100	> 100	–
CC(=O)N(/N=C\c1ccc([N+](=O)[O-])cc1)c1ccccc1	> 100	> 100	> 100	> 100	> 100	> 100	–	> 100	> 100	–	> 100	–	> 100	> 100	> 100	> 100	> 100	> 100	> 100	–
CNC(=S)NNC(=O)c1c(C)nc2sccn12	> 100	> 100	> 100	> 100	> 100	–	–	> 100	> 100	> 100	–	–	> 100	–	> 100	> 100	> 100	> 100	> 100	> 100
Nn1c(-c2ccccc2Nc2ccccc2-c2n[nH]c(=S)n2N)n[nH]c1=S	> 50	> 50	> 50	–	> 50	> 50	> 50	> 50	> 50	> 50	–	–	> 50	> 50	> 50	–	> 50	> 50	> 50	> 50
CCC(C)[C@H]1C(=O)N=C(N)N1C(=O)OCc1ccccc1 (stereo not given in full)	> 100	> 100	> 100	–	> 100	> 100	> 100	> 100	–	> 100	> 100	–	–	> 100	> 100	> 100	> 100	> 100	> 100	> 100
C/C(=N\N=C(\N)OB(F)F)c1ccccn1	> 100	> 100	> 100	–	> 100	–	–	> 100	73.1	42.6	> 100	> 100	85.7	> 100	> 100	> 100	> 100	> 100	> 100	> 100
O=S1(=O)COc2ccccc2-c2ncncc21	> 100	> 100	> 100	> 100	> 100	> 100	–	> 100	> 100	> 100	> 100	–	> 100	> 100	> 100	> 100	> 100	> 100	> 100	> 100
Cn1c(=O)c2c(ncn2CCCCn2ccnc2[N+](=O)[O-])n(C)c1=O	> 100	> 100	> 100	–	> 100	> 100	–	> 100	> 100	> 100	–	–	–	> 100	> 100	> 100	> 100	> 100	> 100	> 100
COc1cccc(N=N/C(=N/NC(=O)c2cc(Cl)ccc2O)c2ccc(N(CCC#N)CCC#N)cc2C)c1	> 100	> 100	> 100	> 100	> 100	> 100	> 100	–	> 100	> 100	> 100	58.4	–	> 100	> 100	> 100	–	> 100	–	–
N#Cc1ccc(Nc2cnc3cc(N)ccc3n2)cc1	> 100	> 100	> 100	> 100	–	> 100	–	> 100	> 100	> 100	–	–	> 100	> 100	> 100	> 100	> 100	> 100	> 100	> 100
CC(C)N(CCCNc1c2ccccc2nc2cccc([N+](=O)[O-])c12)C(C)C	< 0.0156	< 0.0365	–	–	–	< 0.0192	0.527	< 0.0397	0.0806	0.0377	0.0433	–	< 0.01	–	–	–	< 0.01	< 0.0445	0.0637	–
COC1=C(C)C(=O)C2C(C1=O)C(c1ccc(OC)c(OC)c1)[C@H]2C (stereo not given in full)	> 100	> 100	> 100	> 100	> 100	> 100	–	> 100	> 100	> 100	> 100	–	> 100	> 100	> 100	–	> 100	> 100	> 100	> 100
CC1=NN(c2cccc(Cl)c2)C(=N/c2nc3ccccc3s2)/C1=C\C=C\c1ccccc1	59.2	–	–	> 100	82.8	81.2	–	> 100	> 100	> 100	75.5	> 100	–	> 100	> 100	–	> 100	> 100	> 100	92.8
CC(C)Cc1ccc(C(C)/C=C2\CCC(CN3CCOCC3)C2=O)cc1 (stereo not given)	24.3	27.7	25.6	32.8	19.8	–	25.4	10.8	17.8	22	27	–	39.7	21.8	15.9	21.5	22.8	33.8	7.73	20.7
CSc1sc(C)cc1-c1nsc(=O)o1	> 100	> 100	> 100	–	> 100	> 100	> 100	> 100	> 100	> 100	> 100	–	> 100	> 100	> 100	> 100	> 100	> 100	> 100	> 100
CSc1nc2nc(C)c(C)nc2c(=O)[nH]1	> 100	> 100	> 100	> 100	> 100	> 100	–	> 100	> 100	> 100	> 100	–	> 100	> 100	> 100	> 100	> 100	> 100	> 100	> 100
O=C(CC(=O)C(=O)CC(=O)OCc1ccccc1)OCc1ccccc1	> 100	> 100	> 100	> 100	> 100	> 100	–	> 100	> 100	> 100	> 100	–	> 100	75.7	> 100	> 100	> 100	–	–	> 100

From PubChem BioAssay (NCI)
